Tested on: TFG-MET allograft tumors
Experiment: RNA-sequencing, differential expression and GSEA of TFG-MET allograft tumors
Assay type: in vivo, mouse
Method: Error bars display standard error of mean, statistical significance was determined using t-test analysis. (****;p<0.0001, ***;p<0.001, **;p<0.01, *;p<0.05). […] Each dot represents an individual replicate. Error bars display standard error of the mean.
Each dot represents one gene.

[1] = GSEA CAP vs Veh, C5 GO CC, padj 0.0837675
[2] = GSEA CAP vs Veh, C5 GO CC, padj 0.118081
[3] = GSEA CAP vs Veh, C5 GO CC, padj 0.15025
[4] = GSEA CAP vs Veh, C5 GO CC, padj 0.172143
[5] = GSEA CAP vs Veh, C5 GO CC, padj 0.185573
[6] = GSEA CAP vs Veh, C5 GO CC, padj 0.189724
[7] = GSEA CAP vs Veh, C5 GO CC, padj 0.205885
[8] = GSEA CAP vs Veh, C5 GO CC, padj 0.207988
[9] = capmatinib vs vehicle, PD cohort

Question: Which results are given for `CNC(=O)c1ccc(-c2cnc3ncc(Cc4ccc5ncccc5c4)n3n2)cc1F` [Capmatinib]?
Answer: NES GOCC_TRIGLYCERIDE_RICH_PLASMA_LIPOPROTEIN_PARTICLE [1]: 1.6067; NES GOCC_VESICLE_TETHERING_COMPLEX [1]: 1.4789; NES GOCC_IMMUNOLOGICAL_SYNAPSE (GSEA CAP vs Veh, C5 GO CC, padj 0.0851978): 1.513; NES GOCC_TOR_COMPLEX (GSEA CAP vs Veh, C5 GO CC, padj 0.0863609): -1.558; NES GOCC_POTASSIUM_CHANNEL_COMPLEX (GSEA CAP vs Veh, C5 GO CC, padj 0.0898434): 1.3322; NES GOCC_PHOTORECEPTOR_OUTER_SEGMENT (GSEA CAP vs Veh, C5 GO CC, padj 0.0912598): 1.398; NES GOCC_NON_MOTILE_CILIUM (GSEA CAP vs Veh, C5 GO CC, padj 0.0963826): 1.327; NES GOCC_COLLAGEN_TRIMER (GSEA CAP vs Veh, C5 GO CC, padj 0.100203): 1.361; NES GOCC_CYCLIN_DEPENDENT_PROTEIN_KINASE_HOLOENZYME_COMPLEX (GSEA CAP vs Veh, C5 GO CC, padj 0.101289): -1.485; NES GOCC_PHAGOPHORE_ASSEMBLY_SITE_MEMBRANE (GSEA CAP vs Veh, C5 GO CC, padj 0.101632): 1.59; NES GOCC_MICROTUBULE_END (GSEA CAP vs Veh, C5 GO CC, padj 0.104588): -1.488; NES GOCC_MRNA_CLEAVAGE_AND_POLYADENYLATION_SPECIFICITY_FACTOR_COMPLEX (GSEA CAP vs Veh, C5 GO CC, padj 0.106777): -1.514; NES GOCC_PERICENTRIOLAR_MATERIAL (GSEA CAP vs Veh, C5 GO CC, padj 0.107544): -1.541; NES GOCC_SPERM_MIDPIECE (GSEA CAP vs Veh, C5 GO CC, padj 0.11014): 1.543; NES GOCC_FILAMENTOUS_ACTIN (GSEA CAP vs Veh, C5 GO CC, padj 0.113803): -1.495; NES GOCC_CONDENSED_NUCLEAR_CHROMOSOME (GSEA CAP vs Veh, C5 GO CC, padj 0.117551): -1.436; NES GOCC_ENDOPLASMIC_RETICULUM_EXIT_SITE [2]: -1.477; NES GOCC_MITOTIC_SPINDLE [2]: -1.3459; NES GOCC_TERTIARY_GRANULE_LUMEN [2]: 1.448; NES GOCC_MICROTUBULE_ORGANIZING_CENTER (GSEA CAP vs Veh, C5 GO CC, padj 0.119924): -1.201; NES GOCC_ESC_E_Z_COMPLEX (GSEA CAP vs Veh, C5 GO CC, padj 0.125326): -1.503; NES GOCC_MITOCHONDRIAL_PROTEIN_CONTAINING_COMPLEX (GSEA CAP vs Veh, C5 GO CC, padj 0.144325): 1.2339; NES GOCC_MICROBODY_LUMEN [3]: 1.378; NES GOCC_PLATELET_DENSE_GRANULE [3]: 1.446; NES GOCC_POSTSYNAPTIC_CYTOSOL [3]: -1.504; NES GOCC_DNA_HELICASE_COMPLEX (GSEA CAP vs Veh, C5 GO CC, padj 0.150544): -1.462; NES GOCC_H4_H2A_HISTONE_ACETYLTRANSFERASE_COMPLEX (GSEA CAP vs Veh, C5 GO CC, padj 0.153451): -1.479; NES GOCC_T_TUBULE (GSEA CAP vs Veh, C5 GO CC, padj 0.166785): 1.333; NES GOCC_CELL_DIVISION_SITE [4]: -1.364; NES GOCC_CILIARY_MEMBRANE [4]: 1.297; NES GOCC_NUCLEAR_INNER_MEMBRANE [4]: -1.39; NES GOCC_SPERM_PRINCIPAL_PIECE [4]: 1.449; NES GOCC_PROTEIN_KINASE_COMPLEX (GSEA CAP vs Veh, C5 GO CC, padj 0.174487): -1.355; NES GOCC_SARCOPLASMIC_RETICULUM_MEMBRANE (GSEA CAP vs Veh, C5 GO CC, padj 0.176238): 1.347; NES GOCC_TRANSCRIPTION_FACTOR_TFIID_COMPLEX (GSEA CAP vs Veh, C5 GO CC, padj 0.181046): -1.393; NES GOCC_ENDOSOME_LUMEN [5]: 1.406; NES GOCC_SPECIFIC_GRANULE_LUMEN [5]: 1.358; NES GOCC_CLATHRIN_ADAPTOR_COMPLEX [6]: 1.366; NES GOCC_MITOTIC_SPINDLE_POLE [6]: -1.382; NES GOCC_MEMBRANE_MICRODOMAIN (GSEA CAP vs Veh, C5 GO CC, padj 0.192589): 1.19; NES GOCC_CELL_BODY_MEMBRANE (GSEA CAP vs Veh, C5 GO CC, padj 0.197703): 1.35; NES GOCC_VACUOLAR_PROTON_TRANSPORTING_V_TYPE_ATPASE_COMPLEX (GSEA CAP vs Veh, C5 GO CC, padj 0.198626): 1.413; NES GOCC_DENDRITIC_SHAFT [7]: 1.333; NES GOCC_NUCLEAR_OUTER_MEMBRANE [7]: -1.409; NES GOCC_SAGA_TYPE_COMPLEX (GSEA CAP vs Veh, C5 GO CC, padj 0.206418): -1.409; NES GOCC_CLATHRIN_COAT [8]: 1.308; NES GOCC_PHOTORECEPTOR_INNER_SEGMENT [8]: 1.275; NES GOCC_INTEGRAL_COMPONENT_OF_SYNAPTIC_VESICLE_MEMBRANE (GSEA CAP vs Veh, C5 GO CC, padj 0.210702): 1.319; expression of Mapk signature genes in tumors (RNA-sequencing of treated allograft tumors): significant downregulation; GSEA NES, PID_Atm_pathway [9]: -1.751; GSEA NES, PID_Atr_pathway [9]: -2.041; expression of genes involved in the DNA repair machinery (capmatinib-treated vs vehicle tumors, PD cohort): downregulated
